Measured values reported in ChEMBL document CHEMBL1201862, “PubChem BioAssay data set” (2004).
Active and inactive are the calls of the source.

Key:
[1] = A Cell Based Secondary Assay to Explore Cytotoxicity in HepG2 Cells of Compounds that Modulate Mycobacterium tuberculosis in Media Containing Glycerol versus Media without Glycerol (2).; type: functional
[2] = HepG2 cell cytotoxicity, dose response, cytotoxicity control, set 3 (AID 504853); type: functional; conditions: Mycobacterium tuberculosis
[3] = Luminescence Cell-Based Dose Retest to Confirm Inhibitors of Cancer Stem Cells. [Related pubchem assays (depositor defined):AID2717, AID2721]; type: functional; conditions: Homo sapiens
[4] = microbe, parasite or virus in culture; type: functional; conditions: Mycobacterium tuberculosis
[5] = A Cell Based Secondary Assay to Explore Cytotoxicity in THP-1 Cells of Compounds that Modulate Mycobacterium tuberculosis in Media Containing Glycerol versus Media without Glycerol (2).; type: functional
[6] = THP-1 cell cytotoxicity, dose response, cytotoxicity control, set 3 (AID 504852); type: functional; conditions: Mycobacterium tuberculosis
[7] = viability loss of HMLE_sh_eGFP cells – cell-based, luminescence, counter-screen for HMLE_sh_ECad selective toxicity project, dose response (AID 463074); type: functional, Homo sapiens;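 note: HMLE human mammary epithelial cells expressing control shRNA against eGFP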
[8] = Vero cell cytotoxicity, dose response, cytotoxicity control for M. tuberculosis growth inhibitor project, Vero cells, purified and synthesized compounds, set 5 (AID 504909); type: functional; conditions: Mycobacterium tuberculosis
[9] = THP-1 cell cytotoxicity, cytotoxicity control, set 4 (AID 504911); type: functional; conditions: Mycobacterium tuberculosis
[10] = HepG2 cell cytotoxicity, cytotoxicity control, set 4 (AID 504910); type: functional; conditions: Mycobacterium tuberculosis
[11] = Vero cell cytotoxicity, dose response, cytotoxicity control for M. tuberculosis growth inhibitor project, Vero cells, purified and synthesized compounds, set 4 (AID 504854); type: functional; conditions: Mycobacterium tuberculosis
[12] = Vero cell cytotoxicity, cytotoxicity control for M. tuberculosis inhibitor project, purified and synthesized samples, set 3 (AID 504684); type: functional
[13] = SAR analysis of small molecule activators of Apaf-1 using a LZ-Caspase-9/Caspase-3 Fluorescent Selectivity assay - Set 2.; type: functional; conditions: read-out: EC50_Mean
[14] = biological target: T1, Apoptotic protease-activating factor 1 (Homo sapiens, UniProt O14727); experiment: SAR analysis of small molecule Activators of Apaf-1 in a Fluorescent assay - set 2.; type: functional; conditions: read-out: EC50_Mean
T1 sequence (O14727 whole entry): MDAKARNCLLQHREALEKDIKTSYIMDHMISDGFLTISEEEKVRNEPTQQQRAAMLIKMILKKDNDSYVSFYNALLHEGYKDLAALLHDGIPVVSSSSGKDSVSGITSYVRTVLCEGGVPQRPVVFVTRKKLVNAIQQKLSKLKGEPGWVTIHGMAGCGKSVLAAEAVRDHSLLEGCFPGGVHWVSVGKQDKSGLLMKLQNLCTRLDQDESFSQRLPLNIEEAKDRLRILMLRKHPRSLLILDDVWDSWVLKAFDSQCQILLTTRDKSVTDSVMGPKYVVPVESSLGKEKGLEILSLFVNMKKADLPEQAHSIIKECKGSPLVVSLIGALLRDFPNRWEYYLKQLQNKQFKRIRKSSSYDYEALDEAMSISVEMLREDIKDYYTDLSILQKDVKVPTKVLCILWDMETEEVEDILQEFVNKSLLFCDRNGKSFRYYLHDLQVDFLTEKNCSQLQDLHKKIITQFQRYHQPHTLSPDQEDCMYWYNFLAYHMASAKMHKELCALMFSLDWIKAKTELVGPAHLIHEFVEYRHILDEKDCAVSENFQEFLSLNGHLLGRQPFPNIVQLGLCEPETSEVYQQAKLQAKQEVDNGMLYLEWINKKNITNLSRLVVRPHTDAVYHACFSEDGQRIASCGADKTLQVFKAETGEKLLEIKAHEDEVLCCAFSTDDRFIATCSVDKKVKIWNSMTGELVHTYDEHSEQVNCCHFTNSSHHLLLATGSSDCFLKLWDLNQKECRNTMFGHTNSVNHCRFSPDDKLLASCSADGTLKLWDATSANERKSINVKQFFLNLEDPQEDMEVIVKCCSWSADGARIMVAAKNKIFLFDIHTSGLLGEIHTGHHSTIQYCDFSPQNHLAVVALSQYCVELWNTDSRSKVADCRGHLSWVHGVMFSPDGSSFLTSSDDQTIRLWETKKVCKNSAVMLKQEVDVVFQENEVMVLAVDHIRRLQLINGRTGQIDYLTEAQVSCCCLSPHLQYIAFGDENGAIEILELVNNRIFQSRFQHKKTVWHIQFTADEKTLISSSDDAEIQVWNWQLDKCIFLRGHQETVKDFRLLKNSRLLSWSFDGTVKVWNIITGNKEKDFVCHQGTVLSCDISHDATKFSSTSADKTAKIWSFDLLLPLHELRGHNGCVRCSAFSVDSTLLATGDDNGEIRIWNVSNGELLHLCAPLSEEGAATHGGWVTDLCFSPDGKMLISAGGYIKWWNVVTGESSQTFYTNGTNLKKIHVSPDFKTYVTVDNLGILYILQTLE

[15] = biological target: Melanin-concentrating hormone receptor 1 (Homo sapiens, UniProt Q99705); experiment: Late-stage fluorescence-based counterscreen for antagonists of the G-protein coupled receptor 7 (GPR7): cell-based dose response assay to identify antagonists of the melanin-concentrating hormone receptor 1 (MCHR1) Set 6.; type: functional
[16] = biological target: Neuropeptides B/W receptor type 1 (Homo sapiens, UniProt P48145); experiment: human NPBW1 receptor blockade, IC50 – cell-based, fluorescence, dose response, set 6, late-stage follow-up (AID 588583); type: functional
[17] = IC50 of Artemis nuclease activity blockers – biochemical, fluorescence intensity, dose response (AID 720701); type: functional;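 note: Artemis endonuclease enzyme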
[18] = biological target: ORF 73 (Human herpesvirus 8, UniProt O40947); experiment: KSHV LANA DNA-binding disruption – biochemical, fluorescence polarization, cherry-picked samples, dose response (AID 504725); set-up: species or system Human gammaherpesvirus 8;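 note: fluorescence polarization of a labeled DNA duplex reporting LANA DNA binding; potency is for inhibitors that block LANA binding to the DNA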
[19] = biological target: T2, DNA dC->dU-editing enzyme APOBEC-3G (Homo sapiens, UniProt Q9HC16); experiment: SAR analysis of small molecule inhibitors of APOBEC3G DNA Deaminase via a fluorescence-based single-stranded DNA deaminase assay - Set 2.; type: functional; conditions: read-out: IC50_Mean
[20] = biological target: T3, DNA dC->dU-editing enzyme APOBEC-3A (Homo sapiens, UniProt P31941); experiment: SAR analysis of small molecule inhibitors of APOBEC3A DNA Deaminase via a fluorescence-based single-stranded DNA deaminase assay - Set 2.; type: functional; conditions: read-out: IC50_Mean
[21] = biological target: T4, Histone-lysine N-methyltransferase NSD2 (Homo sapiens, UniProt O96028); type: biochemical
T4 sequence (O96028 whole entry): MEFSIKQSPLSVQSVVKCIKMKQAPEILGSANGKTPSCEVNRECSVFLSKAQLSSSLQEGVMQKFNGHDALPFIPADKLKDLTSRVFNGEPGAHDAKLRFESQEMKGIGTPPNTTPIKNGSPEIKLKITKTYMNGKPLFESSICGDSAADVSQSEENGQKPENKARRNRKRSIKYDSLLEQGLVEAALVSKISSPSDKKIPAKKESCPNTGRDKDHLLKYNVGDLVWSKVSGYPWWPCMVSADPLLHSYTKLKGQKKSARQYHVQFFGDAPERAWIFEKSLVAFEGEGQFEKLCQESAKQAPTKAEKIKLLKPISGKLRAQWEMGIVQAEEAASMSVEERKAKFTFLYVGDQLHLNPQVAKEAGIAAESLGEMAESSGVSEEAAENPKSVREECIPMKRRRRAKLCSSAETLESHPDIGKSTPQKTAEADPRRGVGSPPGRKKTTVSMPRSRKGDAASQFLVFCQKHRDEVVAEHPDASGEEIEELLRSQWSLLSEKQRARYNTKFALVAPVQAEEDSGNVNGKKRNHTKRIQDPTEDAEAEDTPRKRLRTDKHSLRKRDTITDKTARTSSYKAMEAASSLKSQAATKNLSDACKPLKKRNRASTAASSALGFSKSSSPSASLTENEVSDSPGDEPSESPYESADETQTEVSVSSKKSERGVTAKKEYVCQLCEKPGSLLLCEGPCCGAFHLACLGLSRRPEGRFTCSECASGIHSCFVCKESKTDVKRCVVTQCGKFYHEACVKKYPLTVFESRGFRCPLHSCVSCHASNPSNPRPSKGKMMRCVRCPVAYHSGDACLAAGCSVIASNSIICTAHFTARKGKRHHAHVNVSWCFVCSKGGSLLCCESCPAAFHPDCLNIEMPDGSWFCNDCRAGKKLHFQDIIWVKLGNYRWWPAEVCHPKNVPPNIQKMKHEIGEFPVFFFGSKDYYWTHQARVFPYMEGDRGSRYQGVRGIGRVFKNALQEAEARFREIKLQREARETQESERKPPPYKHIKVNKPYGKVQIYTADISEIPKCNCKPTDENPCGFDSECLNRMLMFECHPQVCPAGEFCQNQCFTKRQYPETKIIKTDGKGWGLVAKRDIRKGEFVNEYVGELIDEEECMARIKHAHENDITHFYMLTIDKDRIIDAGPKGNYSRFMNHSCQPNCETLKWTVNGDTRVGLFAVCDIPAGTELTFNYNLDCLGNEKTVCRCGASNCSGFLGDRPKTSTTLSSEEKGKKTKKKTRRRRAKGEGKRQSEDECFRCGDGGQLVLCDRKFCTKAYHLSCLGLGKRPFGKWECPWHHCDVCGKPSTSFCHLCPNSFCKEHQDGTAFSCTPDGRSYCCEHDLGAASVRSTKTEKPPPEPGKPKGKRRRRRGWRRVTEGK

[22] = biological target: 1-phosphatidylinositol 4,5-bisphosphate phosphodiesterase gamma-1 (Homo sapiens, UniProt P19174); experiment: Counterscreen for inhibitors of phospholipase C isozymes (PLC-B3): Fluorescence-based biochemical high throughput dose response assay to identify inhibitors of phospholipase C isozymes (PLC-gamma1).
[23] = biological target: Protein-tyrosine kinase 2-beta (Homo sapiens, UniProt Q14289);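 note: potency of inhibitors of PYK2 kinase phosphorylation of poly-GT substrate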
[24] = biological target: 1-phosphatidylinositol 4,5-bisphosphate phosphodiesterase beta-3 (Homo sapiens, UniProt Q01970); experiment: Fluorescence-based biochemical high throughput dose response assay to identify inhibitors of phospholipase C isozymes (PLC-B3).
[25] = biological target: Intestinal-type alkaline phosphatase (Mus musculus, UniProt P24822); experiment: PubChem AID 488785; type: functional
[26] = biological target: T3, DNA dC->dU-editing enzyme APOBEC-3A; experiment: SAR analysis of small molecule inhibitors of APOBEC3A DNA Deaminase via a fluorescence-based single-stranded DNA deaminase assay.; type: functional; conditions: read-out: IC50_Mean
[27] = biological target: Troponin, cardiac muscle (Homo sapiens, UniProt P19429+P45379+P63316); experiment: compounds desensitizing RTF to calcium – biochemical, fluorescence, cardiac regulated thin filaments, triplicate IC50, dose response (AID 504742); type: protein-complex assay
[28] = biological target: Intestinal-type alkaline phosphatase (Homo sapiens, UniProt P09923); experiment: inhibition of human intestinal alkaline phosphatase – biochemical, dose response (AID 488876); type: functional
[29] = biological target: Bifunctional protein GlmU (Mycobacterium tuberculosis, UniProt P9WMN3); experiment: Inhibitors of Mycobacterial Glucosamine-1-phosphate acetyl transferase (GlmU). Secondary screen.; set-up: species or system Mycobacterium tuberculosis H37Rv
[30] = biological target: Ephrin type-A receptor 4 (Mus musculus, UniProt Q03137); experiment: EphA4 ligand-binding antagonists – biochemical, colorimetric, mouse EphA4, primary screen (AID 689); type: functional
[31] = biological target: T5, Alkaline phosphatase, tissue-nonspecific isozyme (Homo sapiens, UniProt P05186); experiment: TNAP enzyme inhibition by screening hits, dose response, selectivity assay for mouse IAP inhibitor project, biochemical, human TNAP, uHTS hits (AID 488906); type: functional
T5 sequence (P05186 whole entry): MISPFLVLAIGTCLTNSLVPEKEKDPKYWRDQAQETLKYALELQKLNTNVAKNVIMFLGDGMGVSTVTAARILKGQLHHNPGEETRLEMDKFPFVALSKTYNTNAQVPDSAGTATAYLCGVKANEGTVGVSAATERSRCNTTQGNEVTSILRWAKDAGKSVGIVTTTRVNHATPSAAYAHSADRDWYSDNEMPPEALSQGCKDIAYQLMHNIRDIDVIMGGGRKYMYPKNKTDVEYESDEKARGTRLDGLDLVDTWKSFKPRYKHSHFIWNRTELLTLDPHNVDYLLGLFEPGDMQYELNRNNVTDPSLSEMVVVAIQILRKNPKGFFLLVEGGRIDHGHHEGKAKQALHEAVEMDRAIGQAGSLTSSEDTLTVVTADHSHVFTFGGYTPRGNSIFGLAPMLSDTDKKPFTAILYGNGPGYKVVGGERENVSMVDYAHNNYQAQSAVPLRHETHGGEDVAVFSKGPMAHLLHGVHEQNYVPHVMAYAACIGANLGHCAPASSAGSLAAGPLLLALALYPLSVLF

[32] = biological target: T2, DNA dC->dU-editing enzyme APOBEC-3G; experiment: inhibition of APOBEC3G ssDNA deamination – biochemical, fluorescence, single-stranded DNA substrate, SAR follow-up (AID 602136); type: functional; conditions: read-out: IC50_Mean

T3 sequence (P31941 whole entry): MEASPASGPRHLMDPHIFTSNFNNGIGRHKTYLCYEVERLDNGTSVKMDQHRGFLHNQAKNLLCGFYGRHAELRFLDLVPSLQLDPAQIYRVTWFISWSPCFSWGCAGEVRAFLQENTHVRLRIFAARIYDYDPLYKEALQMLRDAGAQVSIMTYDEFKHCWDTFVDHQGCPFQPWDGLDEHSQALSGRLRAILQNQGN
T2 sequence (Q9HC16 whole entry): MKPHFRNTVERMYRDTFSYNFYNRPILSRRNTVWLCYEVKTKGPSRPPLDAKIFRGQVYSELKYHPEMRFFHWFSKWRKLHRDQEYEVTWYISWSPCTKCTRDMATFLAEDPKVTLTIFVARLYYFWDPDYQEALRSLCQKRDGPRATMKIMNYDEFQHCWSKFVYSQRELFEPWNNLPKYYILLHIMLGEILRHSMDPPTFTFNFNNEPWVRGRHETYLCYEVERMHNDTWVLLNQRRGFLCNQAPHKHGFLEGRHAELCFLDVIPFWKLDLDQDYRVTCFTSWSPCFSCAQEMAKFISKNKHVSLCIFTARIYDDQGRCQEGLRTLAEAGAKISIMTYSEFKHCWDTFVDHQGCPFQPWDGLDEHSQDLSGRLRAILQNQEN
Sequence of Intestinal-type alkaline phosphatase (Mus musculus, UniProt P24822) (P24822 whole entry): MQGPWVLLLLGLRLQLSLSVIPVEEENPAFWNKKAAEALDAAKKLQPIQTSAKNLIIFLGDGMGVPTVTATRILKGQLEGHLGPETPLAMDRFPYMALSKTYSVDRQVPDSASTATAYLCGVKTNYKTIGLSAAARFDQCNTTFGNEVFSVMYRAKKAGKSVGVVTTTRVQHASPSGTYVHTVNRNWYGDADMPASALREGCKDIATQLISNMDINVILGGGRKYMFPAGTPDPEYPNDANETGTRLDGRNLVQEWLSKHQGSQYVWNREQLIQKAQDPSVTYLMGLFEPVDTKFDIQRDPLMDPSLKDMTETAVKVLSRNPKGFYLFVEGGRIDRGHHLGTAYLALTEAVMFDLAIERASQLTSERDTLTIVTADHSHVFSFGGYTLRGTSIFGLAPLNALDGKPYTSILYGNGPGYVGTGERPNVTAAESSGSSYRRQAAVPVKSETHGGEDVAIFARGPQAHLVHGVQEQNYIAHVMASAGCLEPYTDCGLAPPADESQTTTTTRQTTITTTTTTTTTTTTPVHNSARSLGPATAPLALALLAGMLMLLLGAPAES
Sequence of Bifunctional protein GlmU (P9WMN3 whole entry): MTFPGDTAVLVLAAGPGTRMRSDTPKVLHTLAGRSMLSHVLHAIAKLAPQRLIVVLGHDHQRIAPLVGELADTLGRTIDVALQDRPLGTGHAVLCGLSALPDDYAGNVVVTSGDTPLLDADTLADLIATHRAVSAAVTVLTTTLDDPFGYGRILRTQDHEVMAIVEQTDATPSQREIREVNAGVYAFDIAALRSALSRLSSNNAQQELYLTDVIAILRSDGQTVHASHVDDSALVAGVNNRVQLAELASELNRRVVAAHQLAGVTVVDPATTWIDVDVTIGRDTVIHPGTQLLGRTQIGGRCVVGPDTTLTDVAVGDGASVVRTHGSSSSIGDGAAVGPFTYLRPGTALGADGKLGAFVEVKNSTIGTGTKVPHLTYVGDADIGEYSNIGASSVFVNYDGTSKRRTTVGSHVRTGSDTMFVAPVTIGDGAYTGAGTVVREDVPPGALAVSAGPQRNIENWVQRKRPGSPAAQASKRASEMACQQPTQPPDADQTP
Sequence of 1-phosphatidylinositol 4,5-bisphosphate phosphodiesterase beta-3 (Q01970 whole entry): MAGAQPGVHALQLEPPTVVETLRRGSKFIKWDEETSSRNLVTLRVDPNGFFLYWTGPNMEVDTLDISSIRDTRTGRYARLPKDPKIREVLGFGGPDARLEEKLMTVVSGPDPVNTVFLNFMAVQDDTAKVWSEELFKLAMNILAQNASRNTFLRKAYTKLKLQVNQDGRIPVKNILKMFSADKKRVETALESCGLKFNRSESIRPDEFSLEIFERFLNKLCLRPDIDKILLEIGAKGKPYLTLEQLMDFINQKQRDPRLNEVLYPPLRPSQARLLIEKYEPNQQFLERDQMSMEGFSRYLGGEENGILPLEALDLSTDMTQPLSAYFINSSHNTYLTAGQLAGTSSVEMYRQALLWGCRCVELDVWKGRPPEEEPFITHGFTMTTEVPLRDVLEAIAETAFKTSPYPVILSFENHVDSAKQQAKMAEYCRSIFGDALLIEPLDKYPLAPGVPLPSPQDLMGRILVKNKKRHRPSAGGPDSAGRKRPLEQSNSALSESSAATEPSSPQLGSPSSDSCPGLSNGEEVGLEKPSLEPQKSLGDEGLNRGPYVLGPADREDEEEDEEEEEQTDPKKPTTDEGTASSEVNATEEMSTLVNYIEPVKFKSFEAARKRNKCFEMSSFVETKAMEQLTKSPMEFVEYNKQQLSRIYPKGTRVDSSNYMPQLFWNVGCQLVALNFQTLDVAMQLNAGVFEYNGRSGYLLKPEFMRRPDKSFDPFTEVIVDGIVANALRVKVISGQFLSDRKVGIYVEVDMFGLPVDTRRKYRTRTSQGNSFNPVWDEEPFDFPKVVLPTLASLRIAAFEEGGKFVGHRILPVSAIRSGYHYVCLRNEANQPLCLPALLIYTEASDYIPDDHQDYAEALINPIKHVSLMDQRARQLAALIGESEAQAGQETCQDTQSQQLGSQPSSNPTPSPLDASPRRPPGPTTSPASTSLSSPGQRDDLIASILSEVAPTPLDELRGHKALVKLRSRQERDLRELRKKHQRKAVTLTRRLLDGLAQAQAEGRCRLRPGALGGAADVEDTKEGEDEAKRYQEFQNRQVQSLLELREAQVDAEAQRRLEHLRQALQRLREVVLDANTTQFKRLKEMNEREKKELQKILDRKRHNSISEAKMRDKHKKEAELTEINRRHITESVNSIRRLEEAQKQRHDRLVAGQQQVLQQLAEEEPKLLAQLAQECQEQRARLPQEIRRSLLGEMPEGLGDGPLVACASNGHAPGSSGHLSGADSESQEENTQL
Sequence of Ephrin type-A receptor 4 (Q03137 whole entry): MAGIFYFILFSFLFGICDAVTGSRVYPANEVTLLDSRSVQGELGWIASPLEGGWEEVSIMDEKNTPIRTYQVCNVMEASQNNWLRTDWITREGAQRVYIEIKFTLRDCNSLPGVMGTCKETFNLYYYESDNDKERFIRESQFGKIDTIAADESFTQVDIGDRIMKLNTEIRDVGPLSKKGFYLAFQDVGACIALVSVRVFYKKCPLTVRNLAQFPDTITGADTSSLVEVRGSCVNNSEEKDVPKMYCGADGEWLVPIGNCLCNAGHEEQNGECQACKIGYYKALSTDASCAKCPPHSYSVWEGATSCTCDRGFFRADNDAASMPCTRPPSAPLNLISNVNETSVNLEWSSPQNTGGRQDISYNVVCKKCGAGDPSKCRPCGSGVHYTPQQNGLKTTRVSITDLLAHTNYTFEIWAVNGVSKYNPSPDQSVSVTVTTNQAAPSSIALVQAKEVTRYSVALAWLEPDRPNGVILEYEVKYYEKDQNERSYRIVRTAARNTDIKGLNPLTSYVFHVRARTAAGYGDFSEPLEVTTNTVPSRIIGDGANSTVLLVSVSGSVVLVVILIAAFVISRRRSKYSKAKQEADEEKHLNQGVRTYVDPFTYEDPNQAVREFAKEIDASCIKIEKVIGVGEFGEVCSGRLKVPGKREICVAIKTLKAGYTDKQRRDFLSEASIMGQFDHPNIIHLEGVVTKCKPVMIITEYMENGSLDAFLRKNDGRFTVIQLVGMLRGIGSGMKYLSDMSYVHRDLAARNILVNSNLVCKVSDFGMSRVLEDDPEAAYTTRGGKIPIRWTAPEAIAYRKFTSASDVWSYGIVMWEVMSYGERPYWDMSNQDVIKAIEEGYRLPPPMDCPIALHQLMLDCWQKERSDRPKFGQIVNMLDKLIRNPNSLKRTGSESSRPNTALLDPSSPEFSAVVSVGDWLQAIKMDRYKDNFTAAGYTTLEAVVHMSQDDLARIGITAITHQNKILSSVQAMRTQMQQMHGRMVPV
Sequence of Neuropeptides B/W receptor type 1 (P48145 whole entry): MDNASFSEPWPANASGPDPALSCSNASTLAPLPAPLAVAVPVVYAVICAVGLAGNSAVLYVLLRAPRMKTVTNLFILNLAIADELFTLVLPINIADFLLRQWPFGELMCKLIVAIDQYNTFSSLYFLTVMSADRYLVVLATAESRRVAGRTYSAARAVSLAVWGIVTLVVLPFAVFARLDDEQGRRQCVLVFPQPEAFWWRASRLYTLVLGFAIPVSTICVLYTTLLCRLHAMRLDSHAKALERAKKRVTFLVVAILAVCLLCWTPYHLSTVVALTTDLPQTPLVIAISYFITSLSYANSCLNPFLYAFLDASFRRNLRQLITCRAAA
Sequence of Intestinal-type alkaline phosphatase (Homo sapiens, UniProt P09923) (P09923 whole entry): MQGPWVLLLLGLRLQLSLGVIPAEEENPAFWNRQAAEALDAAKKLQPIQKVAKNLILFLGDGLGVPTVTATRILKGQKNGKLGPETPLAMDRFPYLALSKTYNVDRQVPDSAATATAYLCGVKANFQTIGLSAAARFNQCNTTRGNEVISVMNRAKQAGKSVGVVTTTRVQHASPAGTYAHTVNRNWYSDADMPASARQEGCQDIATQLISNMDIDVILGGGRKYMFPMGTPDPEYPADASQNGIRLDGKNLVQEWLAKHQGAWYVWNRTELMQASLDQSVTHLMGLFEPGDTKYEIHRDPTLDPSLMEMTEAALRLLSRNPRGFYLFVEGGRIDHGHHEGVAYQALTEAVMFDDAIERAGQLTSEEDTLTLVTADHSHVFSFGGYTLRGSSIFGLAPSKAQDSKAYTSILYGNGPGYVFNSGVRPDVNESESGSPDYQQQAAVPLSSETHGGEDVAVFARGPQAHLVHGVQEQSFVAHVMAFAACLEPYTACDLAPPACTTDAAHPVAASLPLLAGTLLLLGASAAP

Cc1cccc(-c2oc3ccc(-c4ccc5c(c4)OCO5)cc3c2C#Cc2cncn2C)c1
CC50 [1]: > 50 µM (active) | CC50 [2]: > 50 µM (active) | AC50 [3]: 5.28 µM (active) | CC50 [4]: > 40 µM (active) | CC50 [5]: 43.8 µM (active) | CC50 [6]: 34.6 µM (active) | AC50 [7]: 21.8 µM (active) | CC50 [8]: 85.2 µM (active) | CC50 [9]: > 44.8 µM (active) | CC50 [10]: > 50 µM (active) | CC50 [11]: > 93 µM (active) | CC50 [12]: 42.3 µM (active)

COc1ccc(C2=NOC(C(=O)O)C2)cc1 (configuration not stated)
EC50 [13]: > 100 µM (inactive) | EC50 [14]: > 100 µM (inactive)

N#CC(c1ccc(F)cc1)c1c(Br)cnn(Cc2cccc3ccccc23)c1=O (configuration not stated)
IC50 [15]: 240 nM (active) | IC50 [16]: 240 nM (active)

CC(C(=O)O)N1C(=O)/C(=C/C=C/c2ccco2)SC1=S (configuration not stated)
IC50 [17]: > 20 µM (inactive) | AC50 [18]: 45.6 µM (active) | IC50 [19]: 884 nM (active) | IC50 [20]: 1.21 µM (active) | AC50 [21]: 1.63 µM (active) | IC50 [22]: > 122 µM (inactive) | IC50 [23]: 1.07 µM (active) | IC50 [24]: > 122 µM (inactive) | IC50 [25]: 10 µM (active) | IC50 [26]: 1.19 µM (active) | IC50 [27]: > 71.5 µM (inactive) | IC50 [28]: > 100 µM (inactive) | IC50 [29]: 61.4 µM (active) | IC50 [30]: 2.79 µM (active) | IC50 [31]: > 100 µM (inactive) | IC50 [32]: 2.08 µM (active)
